Source: patent US12472193B2, “Methods and compositions for treating and preventing respiratory related diseases and conditions with xylitol-headgroup lipid analogs” (National Jewish Health, priority 2017, dated 2025)
“Also recorded” adds a separate entry of the source.

Test system: RSV
Assay: Quantitative RSV plaque assay in HEp2 cells
Assay type: cell-based, human RSV A2 strain
Settings: for antiviral activity against RSV by plaque assay: 50 μg/mL lipid, HEp2, 37° C.
Protocol: Viral stocks were propagated in HEp2 cell monolayers using DMEM/Ham's F12 Medium (GIBCO), plus 5% bovine growth serum (Hyclone) with 1× penicillin streptomycin, and virus was purified using methods previously described [M. Numata, H. W. Chu, A. Dakhama, and D. R. Voelker, “Pulmonary surfactant phosphatidylglycerol inhibits respiratory syncytial virus-induced inflammation and infection.,” Proc. Natl. Acad. Sci. U.S.A., vol. 107, no. 1, pp. 320-5, 2010.]. Viral titers and growth were measured by plaque assays [J. L. McKimm-Breschkin, “A simplified plaque assay for respiratory syncytial virus—direct visualization of plaques without immunostaining,” 2004.]. The antiviral activity of xylitol-headgroup lipids was determined by in vitro RSV infection in the presence or absence of lipid and infectious particles were quantified by viral plaque assay. HEp2 cells were plated at a density of 1.8×10^6 per well in a 6 well plate 24 hours prior to infection in order to create a uniform monolayer. Cell monolayers were infected for 2 hours at 37° C. with serial dilutions of RSV alone and RSV in combination with 50 μg/mL of phospholipid. Following the 2-hour period of infection, the inoculum was removed and 3 mL of medium containing 0.3% agarose was added, allowed to solidify and placed in a 37° C. incubator for 6 days. On day 6 the cells were fixed overnight with formalin and then stained with a neutral red stain and viral plaques were quantified visually.
An optimized quantitative plaque assay (described for RSV by J. L. McKimm-Breschkin, “A simplified plaque assay for respiratory syncytial virus-direct visualization of plaques without immunostaining,” 2004) was applied to survey the ability of PX lipids to inhibit RSV infection. The human epithelial cell line, HEp2, was seeded at a density of 1.8×10^6 per well in a 6-well plate 24 hours in advance of infection. Reaction conditions for infection took place in serum-free medium and were combined before addition to cells. A standard dilution of virus alone was prepared and 50 μg/mL phospholipid in combination with RSV was also prepared. Cells were washed with PBS to remove any serum prior to infection and then 500 μL of virus in various combinations with lipids was added to each well and incubated at 37° C. for 2 hours. Plates were rotated every 20 minutes for even distribution of viral infection. After infection, the viral inoculum was removed and medium containing 0.3% agarose was added to each well and allowed to solidify then placed back into the incubator at 37° C. for 6 days. On day 6, cells were fixed overnight then the agarose layer was removed and wells were stained with neutral red and viral plaques counted. POPG is a known inhibitor of RSV infection in vitro and in vivo. […] Ester-linked saturated xylitol lipids composed the moderately effective antivirals. The sole xylitol analog that was determined ineffective was saturated and ether-linked.

CCCCCCCCCCCCCCOC[C@H](COP(=O)(O)OCC(O)C(O)C(O)CO)OCCCCCCCCCCCCCC (mixture of isomers) [14:0 DEPX, sn-1-O-myristyl, sn-2-O-myristyl sn-3 glycerol phosphoxylitol]
antiviral activity against RSV by plaque assay: ineffective as an antiviral; also recorded: ineffective at preventing RSV infection; also recorded: did not inhibit plaque formation

CCCCCCCCC=CCCCCCCCCOCC(COP(=O)(O)OCC(O)C(O)C(O)CO)OCCCCCCCCC=CCCCCCCCC (mixture of isomers) [18:1 DEPX, sn-1-O-octadecenyl, sn-2-O-octadecenyl sn-3 glycerol phosphoxylitol]
antiviral activity against RSV by plaque assay: inhibit infection and propagation of RSV

CCCCCCCCCCCCCC(=O)OC[C@H](COP(=O)(O)OCC(O)C(O)C(O)CO)OC(=O)CCCCCCCCCCCCC (mixture of isomers) [DMPX, sn-1-myristoyl, sn-2-myristoyl sn-3 glycerol phosphoxylitol]
antiviral activity against RSV by plaque assay: moderate antiviral activity

CCCCCCCCC=CCCCCCCCC(=O)OCC(COP(=O)(O)OCC(O)C(O)C(O)CO)OC(=O)CCCCCCCC=CCCCCCCCC (mixture of isomers) [DOPX, sn-1-oleoyl, sn-2-oleoyl sn-3 glycerol phosphoxylitol]
antiviral activity against RSV by plaque assay: inhibit infection and propagation of RSV

CCCCCCCCCCCCCCCC(=O)OCC(COP(=O)(O)OCC(O)C(O)C(O)CO)OC(=O)CCCCCCCCCCCCCCC (centres unmarked) [DPPX, sn-1-palmitoyl, sn-2-palmitoyl sn-3 glycerol phosphoxylitol]
antiviral activity against RSV by plaque assay: moderate antiviral activity

CCCCCCCCCCCCCCCCCC(=O)OCC(COP(=O)(O)OCC(O)C(O)C(O)CO)OC(=O)CCCCCCCCCCCCCCCCC (centres unmarked) [DSPX, sn-1-stearoyl, sn-2-stearoyl sn-3 glycerol phosphoxylitol]
antiviral activity against RSV by plaque assay: moderate antiviral activity

CCCCCCCC/C=C\CCCCCCCC(=O)O[C@H](COC(=O)CCCCCCCCCCCCCCC)COP(=O)([O-])OCC[N+](C)(C)C [POPC, 1-palmitoyl-2-oleoyl-sn-glycero-3-phosphocholine, reference compound]
antiviral activity against RSV by plaque assay: ineffective as an antiviral

CCCCCCCC/C=C\CCCCCCCC(=O)O[C@H](COC(=O)CCCCCCCCCCCCCCC)COP(=O)(O)OCC(O)CO (some centres unmarked) [POPG, palmitoyl-oleoyl-phosphatidylglycerol, reference compound]
reduction of RSV viral infection by a factor of (50 μg/ml lipid, 10^4 infectious virus/ml, HEp2): > 10^4
